Legend:
Type in all cases: cell-based
SETD5 minigene, Exon X = assay: SETD5 minigene splicing assay, RT-PCR; settings: mutated SETD5 minigene
Source text: FIGS. 3E-3G Upper row: The length of the exon triplets cloned into minigenes constructs are shown. The flanking sequences of the 5′ splice sites of Exon X are shown in LOGO plots. The height of each nucleotide was estimated using in silico saturated mutagenesis, with the corresponding closely matched CNN Motifs indicated below the plots. […] Middle row: Splicing changes for Exon X in both wildtype and mutated exon triplets, predicted by the CNN model (left) and measured by RT-PCR of the minigene (right). The RT-PCR experiments were performed in duplicate and independently repeated three times for each minigene to make the bar plots (two-tailed, unpaired Student's t test). Bottom row: Example of splicing changes induced by treatment with Compound (I) in the minigene splicing assays. The percentage for Exon X inclusion is indicated beneath each lane, from treated and untreated conditions in both wildtype and mutated minigenes. […] The statistical significance, as shown in FIGS. 3E-3G, was determined via two-tailed, unpaired Student's test: *p<0.05; **p<0.01; ***p<0.001. […]
Wild-type and mutant double-stranded DNA (dsDNA) fragments, selected based on low nucleotide length and exon-skipping probability, were ordered through GENEWIZ (FragmentGENE). […] Concentrations were determined using a nanodrop spectrometer.

MLH1 c.1989 G>A, exon 17 = assay: MLH1 c.1989 G>A minigene exon 17 splicing in transfected cell lines; settings: 60 μM, 24 hours
Source text: (§1) FIGS. 4C-4F Upper row: The sequences at the 5′ splice site of Exon X in patient cells and minigene constructs are shown (FIGS. 4C-4F). The sequences around the 5′ splice site of Exon X are shown in LOGO plots, with the closely matched CNN motifs indicated beneath the plots. […] Middle row: RT-PCR experiments validated treatment responses in patient cell lines carrying specific splice site mutations. The upper bands indicate the isoform in which the middle Exon X is included while the lower bands indicate the isoform in which the middle Exon X is skipped. Each set of gels is one of the triplicates used to generate the bar plots beneath. […] The statistical significance, as shown in FIGS. 4C-4F, was determined via two-tailed, unpaired Student's test: *p<0.05; **p<0.01; ***p<0.001.
In another example from Table 18, a minigene encompassing MLH1 exons 16 to 18 and flanking exon 17 intronic sequences, with the c.1989 G>A mutation was prepared. This mutation was predicted by SpliceA1 to cause skipping of exon 17 in the MLH1 gene. […] The c.1989 G>A mutation in MLH1 is associated with hereditary nonpolyposis colorectal cancer (HNPCC) or Lynch syndrome (MIM #120435). Individuals with MLH1 mutations also have an increased risk of cancers of the endometrium, ovaries, stomach, small intestine, liver, gallbladder duct, upper urinary tract, and brain^14-16,65. […]

[1] = tested on: CFTR gene c.2988G>A, exon 18; assay: CFTR c.2988G>A minigene (EMG-MUT) exon 18 splicing in HEK293 cells, RT-PCR; settings: 60 μM, 24 hours
Source text: as §1
In another example from Table 18, the ClinVar and CNN model predictions related to the CFTR gene carrying a c.2988G>A mutation (see FIG. 4D) were confirmed by stably expressing a minigene containing the full length CFTR coding sequence carrying the c.2988G>A mutation and flanking introns (EMG-MUT)^63 in HEK293 cells. The c.2988G>A mutation was reported to cause skipping of exon 18 in the CFTR gene and is associated with abnormal CFTR function and a mild form of Cystic Fibrosis^64. Using RT-PCR, the minigene was confirmed to harbor the mutation (EMG-MUT), showing only 5% exon 18 inclusion.

In the case of `Clc1nc(NCc2ccncc2)c2cc[nH]c2n1` [Compound (I), 2-chloro-N-(pyridin-4-ylmethyl)-7H-pyrrolo[2,3-d]pyrimidin-4-amine], the “Exon X splicing response confirmed by RT-PCR” value (SETD5 minigene, Exon X) is reported as “exclusion”, the “exon 17 splicing” value (MLH1 c.1989 G>A, exon 17) is reported as “significantly promoted exon 17 inclusion” and the “exon 18 inclusion in EMG-MUT” value [1] is reported as “significantly increased exon inclusion”.

Reference: US20230047208A1, “RNA Splicing Modulation” (The General Hospital Corporation, priority 2020, published 2023)
